Assay results reported in PubChem BioAssay (NCI).
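Following 48 hours of exposure in 96-well plates, responses at five concentrations were used to interpolate endpoints linearly. TGI denotes the concentration required for complete inhibition of growth.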

What was measured:
Assay in all cases: NCI tumour cell line growth inhibition, 48 h
OVCAR-8 ovarian = test system: OVCAR-8 ovarian
A498 renal = test system: A498 renal
IGROV1 ovarian = test system: IGROV1 ovarian
HCT-15 colon = test system: HCT-15 colon
T-47D breast = test system: T-47D breast
NCI-H460 lung = test system: NCI-H460 lung
OVCAR-3 ovarian = test system: OVCAR-3 ovarian
OVCAR-5 ovarian = test system: OVCAR-5 ovarian
RPMI-8226 leukemia = test system: RPMI-8226 leukemia
ACHN renal = test system: ACHN renal
HOP-92 NSCLC = test system: HOP-92 NSCLC
HT29 colon = test system: HT29 colon
SR leukemia = test system: SR leukemia
SK-OV-3 ovarian = test system: SK-OV-3 ovarian
U251 CNS = test system: U251 CNS
SK-MEL-5 melanoma = test system: SK-MEL-5 melanoma
EKVX NSCLC = test system: EKVX NSCLC
SNB-19 CNS = test system: SNB-19 CNS
MDA-MB-435 = test system: MDA-MB-435
MCF7 breast = test system: MCF7 breast
OVCAR-4 ovarian = test system: OVCAR-4 ovarian
NCI/ADR-RES ovarian = test system: NCI/ADR-RES ovarian
BT-549 breast = test system: BT-549 breast
SK-MEL-2 melanoma = test system: SK-MEL-2 melanoma
MDA-MB-231 breast = test system: MDA-MB-231 breast
HCT-116 colon = test system: HCT-116 colon
SN12C renal = test system: SN12C renal
DU-145 prostate = test system: DU-145 prostate
MDA-N = test system: MDA-N
SNB-75 CNS = test system: SNB-75 CNS
SF-295 CNS = test system: SF-295 CNS
HCC-2998 colon = test system: HCC-2998 colon
HS 578T breast = test system: HS 578T breast
SW-620 colon = test system: SW-620 colon
M14 melanoma = test system: M14 melanoma
UACC-62 melanoma = test system: UACC-62 melanoma
UO-31 renal = test system: UO-31 renal
CAKI-1 renal = test system: CAKI-1 renal
HOP-62 NSCLC = test system: HOP-62 NSCLC
PC-3 prostate = test system: PC-3 prostate
CCRF-CEM leukemia = test system: CCRF-CEM leukemia
786-0 renal = test system: 786-0 renal
KM12 colon = test system: KM12 colon
UACC-257 melanoma = test system: UACC-257 melanoma
HL-60(TB) leukemia = test system: HL-60(TB) leukemia
NCI-H23 lung = test system: NCI-H23 lung
MOLT-4 leukemia = test system: MOLT-4 leukemia
SK-MEL-28 melanoma = test system: SK-MEL-28 melanoma
LOX IMVI melanoma = test system: LOX IMVI melanoma
NCI-H226 lung = test system: NCI-H226 lung
TK-10 renal = test system: TK-10 renal
A549 NSCLC = test system: A549 NSCLC
RXF 393 renal = test system: RXF 393 renal
COLO 205 colon = test system: COLO 205 colon
SF-268 CNS = test system: SF-268 CNS
K-562 leukemia = test system: K-562 leukemia
NCI-H522 lung = test system: NCI-H522 lung
SF-539 CNS = test system: SF-539 CNS
MALME-3M melanoma = test system: MALME-3M melanoma

Measured: TGI

CCN(CC)CCN1C=CC(C)C(C(=O)O)C1C(N)=O (centres undefined)
> 100 µM: OVCAR-8 ovarian | A498 renal | IGROV1 ovarian | HCT-15 colon | T-47D breast | NCI-H460 lung | OVCAR-3 ovarian | OVCAR-5 ovarian | RPMI-8226 leukemia | ACHN renal | HOP-92 NSCLC | HT29 colon | SR leukemia | SK-OV-3 ovarian | U251 CNS | SK-MEL-5 melanoma | EKVX NSCLC | SNB-19 CNS | MDA-MB-435 | MCF7 breast | OVCAR-4 ovarian | NCI/ADR-RES ovarian | BT-549 breast | SK-MEL-2 melanoma | MDA-MB-231 breast | HCT-116 colon | SN12C renal | DU-145 prostate | MDA-N | SNB-75 CNS | SF-295 CNS | HCC-2998 colon | HS 578T breast | SW-620 colon | M14 melanoma | UACC-62 melanoma | UO-31 renal | CAKI-1 renal | HOP-62 NSCLC | PC-3 prostate | CCRF-CEM leukemia | 786-0 renal | KM12 colon | UACC-257 melanoma | HL-60(TB) leukemia | NCI-H23 lung | MOLT-4 leukemia | SK-MEL-28 melanoma | LOX IMVI melanoma | NCI-H226 lung | TK-10 renal | A549 NSCLC | RXF 393 renal | COLO 205 colon | SF-268 CNS | K-562 leukemia | NCI-H522 lung

O=C1c2ccccc2CCC1C(O)(C(F)(F)F)C(F)(F)F (centres undefined)
> 100 µM: OVCAR-8 ovarian | A498 renal | IGROV1 ovarian | HCT-15 colon | T-47D breast | NCI-H460 lung | OVCAR-3 ovarian | OVCAR-5 ovarian | RPMI-8226 leukemia | ACHN renal | HOP-92 NSCLC | HT29 colon | SR leukemia | SK-OV-3 ovarian | U251 CNS | SK-MEL-5 melanoma | EKVX NSCLC | SNB-19 CNS | MDA-MB-435 | MCF7 breast | OVCAR-4 ovarian | SF-539 CNS | NCI/ADR-RES ovarian | BT-549 breast | SK-MEL-2 melanoma | MDA-MB-231 breast | HCT-116 colon | DU-145 prostate | MDA-N | SNB-75 CNS | SF-295 CNS | HCC-2998 colon | HS 578T breast | SW-620 colon | M14 melanoma | MALME-3M melanoma | UACC-62 melanoma | UO-31 renal | CAKI-1 renal | PC-3 prostate | CCRF-CEM leukemia | 786-0 renal | KM12 colon | UACC-257 melanoma | NCI-H23 lung | MOLT-4 leukemia | SK-MEL-28 melanoma | LOX IMVI melanoma | NCI-H226 lung | TK-10 renal | A549 NSCLC | RXF 393 renal | COLO 205 colon | K-562 leukemia | NCI-H522 lung

COc1cc(OC)cc(C(=O)NC2=C(Cl)C(=O)c3ccccc3C2=O)c1
4.48 µM: MDA-MB-435
2.89 µM: HOP-92 NSCLC
> 39.6 µM: EKVX NSCLC
19 µM: SK-MEL-28 melanoma
7.68 µM: TK-10 renal
2.65 µM: SW-620 colon
12.3 µM: SNB-75 CNS
1.22 µM: UACC-62 melanoma
10.9 µM: HT29 colon | PC-3 prostate
9.24 µM: NCI-H460 lung
6.01 µM: OVCAR-4 ovarian
18.5 µM: SF-539 CNS
27.1 µM: A498 renal
3.51 µM: T-47D breast
5.54 µM: OVCAR-3 ovarian
9.22 µM: BT-549 breast
6.12 µM: MOLT-4 leukemia
15.6 µM: COLO 205 colon
3.31 µM: MALME-3M melanoma
4.01 µM: SK-MEL-2 melanoma | K-562 leukemia
2.47 µM: NCI-H522 lung
16.6 µM: OVCAR-5 ovarian
11.9 µM: NCI/ADR-RES ovarian
> 38.3 µM: A549 NSCLC
4.09 µM: RXF 393 renal
24.4 µM: HS 578T breast
9.91 µM: SF-295 CNS
5.14 µM: LOX IMVI melanoma
9.42 µM: U251 CNS | UO-31 renal
2.35 µM: HCT-116 colon
16.8 µM: DU-145 prostate
21.9 µM: SNB-19 CNS
10.4 µM: HCT-15 colon | KM12 colon
13.1 µM: SN12C renal
6.2 µM: UACC-257 melanoma
29.2 µM: MDA-MB-231 breast
17.7 µM: CAKI-1 renal
11.2 µM: SK-OV-3 ovarian
17.6 µM: OVCAR-8 ovarian
12.9 µM: IGROV1 ovarian
5.35 µM: SK-MEL-5 melanoma
7.93 µM: NCI-H23 lung
13.8 µM: HCC-2998 colon
12 µM: NCI-H226 lung
6.67 µM: M14 melanoma
2.83 µM: ACHN renal
> 21.7 µM: RPMI-8226 leukemia
12.8 µM: SF-268 CNS
> 23.1 µM: SR leukemia
8.73 µM: MCF7 breast
5.13 µM: MDA-N
27.8 µM: HOP-62 NSCLC
3.99 µM: CCRF-CEM leukemia
